The assay concerns the target T1, WT BTK protein (Homo sapiens, UniProt Q06187).
T1 construct: measured for intracellular BTK protein levels by Western blotting; endogenous in cells; host or cells: TMD-8 or RAMOS cells
In words: BTK protein degradation assay (Western blotting), WT BTK. Format: cell-based. The following applies: concentration range accounting for 50% degradation of WT BTK protein, TMD-8 or RAMOS cells, 24 hours. The gist of the method: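 BTK levels were read by Western blotting (GAPDH and β-actin normalisers) in RIPA lysates of TMD-8 cells exposed to compounds for 24 h at 1×10^6 cells/mL. Results scored in ranges of the concentration producing 50% loss of WT BTK.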
A general note: In western blotting, separated proteins are transferred to a membrane and probed.

T1 sequence (Q06187 whole entry): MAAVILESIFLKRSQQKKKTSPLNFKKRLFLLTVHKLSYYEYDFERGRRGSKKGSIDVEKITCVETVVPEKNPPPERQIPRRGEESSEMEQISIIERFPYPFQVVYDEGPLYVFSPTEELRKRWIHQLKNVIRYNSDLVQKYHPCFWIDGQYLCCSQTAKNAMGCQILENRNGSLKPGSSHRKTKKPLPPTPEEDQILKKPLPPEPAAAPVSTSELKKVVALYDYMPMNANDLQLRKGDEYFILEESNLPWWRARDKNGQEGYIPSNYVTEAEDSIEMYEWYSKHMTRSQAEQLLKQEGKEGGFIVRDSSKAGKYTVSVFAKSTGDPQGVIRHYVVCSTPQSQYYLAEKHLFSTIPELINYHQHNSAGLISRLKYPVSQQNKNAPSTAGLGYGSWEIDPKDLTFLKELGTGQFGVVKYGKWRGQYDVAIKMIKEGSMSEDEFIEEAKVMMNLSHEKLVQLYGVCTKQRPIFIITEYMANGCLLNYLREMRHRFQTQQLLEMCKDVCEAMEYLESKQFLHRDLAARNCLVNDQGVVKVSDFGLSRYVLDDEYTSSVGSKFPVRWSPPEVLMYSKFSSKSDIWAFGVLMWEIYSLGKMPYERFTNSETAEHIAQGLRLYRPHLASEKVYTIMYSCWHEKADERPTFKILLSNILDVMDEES

In the case of `Cc1cccc(C)c1Nc1nn(C)c2nc(Nc3ccc4c(c3)CN(C3CCN(C[C@H]5CCN(c6ccc7c(c6)C(=O)N(C6CCC(=O)NC6=O)C7=O)C5)CC3)CC4)ncc12` (stereo partly drawn) [Compound 142, 5-((R)-3-((4-(7-((3-((2,6-dimethylphenyl)amino)-1-methyl-1H-pyrazolo[3,4-d]pyrimidin-6-yl)amino)-3,4-dihydroisoquinolin-2 (1H)-yl)piperidin-1-yl)methyl)pyrrolidin-1-yl)-2-(2,6-dioxopiperidin-3-yl)isoindoline-1,3-dione], the DC50 is 0.1 to 10 nM.

As for `Cc1cccc(C)c1Nc1nn(C)c2nc(Nc3ccc4c(c3)CN(C3CCN(C[C@@H]5CCN(c6ccc7c(c6)C(=O)N(C6CCC(=O)NC6=O)C7=O)C5)CC3)CC4)ncc12` (stereo partly drawn) [Compound 143, 5-((S)-3-((4-(7-((3-((2,6-dimethylphenyl)amino)-1-methyl-1H-pyrazolo[3,4-d]pyrimidin-6-yl)amino)-3,4-dihydroisoquinolin-2 (1H)-yl)piperidin-1-yl)methyl)pyrrolidin-1-yl)-2-(2,6-dioxopiperidin-3-yl)isoindoline-1,3-dione], the DC50 lay within 0.1 to 10 nM.

Regarding `Cc1cccc(C)c1Nc1nn(C)c2nc(Nc3ccc4c(c3)CN(C[C@@H]3CCN(c5ccc6c(c5)C(=O)N(C5CCC(=O)NC5=O)C6=O)C3)CC4)ncc12` (stereo partly drawn) [Compound 145, 5-((S)-3-((7-((3-((2,6-Dimethylphenyl)amino)-1-methyl-1H-pyrazolo[3,4-d]pyrimidin-6-yl)amino)-3,4-dihydroisoquinolin-2 (1H)-yl)methyl)pyrrolidin-1-yl)-2-(2,6-dioxopiperidin-3-yl)isoindoline-1,3-dione], the 50% degradation concentration (DC50) fell in the range of 0.1 to 10 nM.

As for `Cc1cccc(C)c1Nc1nn(C)c2nc(Nc3ccc4c(c3)CN(CCC3CCN(c5ccc6c(c5)C(=O)N(C5CCC(=O)NC5=O)C6=O)CC3)CC4)ncc12` (stereo not drawn) [Compound 146, 5-(4-(2-(7-((3-((2,6-Dimethylphenyl)amino)-1-methyl-1H-pyrazolo[3,4-d]pyrimidin-6-yl)amino)-3,4-dihydroisoquinolin-2 (1H)-yl)ethyl)piperidin-1-yl)-2-(2,6-dioxopiperidin-3-yl)isoindoline-1,3-dione], the half-maximal degradation concentration (DC50) was 0.1 to 10 nM.

In the case of `Cc1cccc(C)c1Nc1nn(C)c2nc(Nc3ccc4c(c3)CN(CC3CCN(C5CN(c6ccc7c(c6)C(=O)N(C6CCC(=O)NC6=O)C7=O)C5)CC3)CC4)ncc12` (stereo not drawn) [Compound 147, 5-(3-(4-((7-((3-((2,6-Dimethylphenyl)amino)-1-methyl-1H-pyrazolo[3,4-d]pyrimidin-6-yl)amino)-3,4-dihydroisoquinolin-2 (1H)-yl)methyl)piperidin-1-yl)azetidin-1-yl)-2-(2,6-dioxopiperidin-3-yl)isoindoline-1,3-dione], the half-maximal degradation concentration (DC50) is 0.1 to 10 nM.

For `Cc1cccc(C)c1Nc1nn(C)c2nc(Nc3ccc4c(c3)CN(C[C@@H]3[C@H]5CN(c6ccc7c(c6)C(=O)N(C6CCC(=O)NC6=O)C7=O)C[C@@H]35)CC4)ncc12` (stereo partly drawn) [Compound 148, 5-((1R,5S,6S)-6-((7-((3-((2,6-Dimethylphenyl)amino)-1-methyl-1H-pyrazolo[3,4-d]pyrimidin-6-yl)amino)-3,4-dihydroisoquinolin-2 (1H)-yl)methyl)-3-azabicyclo[3.1.0]hexan-3-yl)-2-(2,6-dioxopiperidin-3-yl)isoindoline-1,3-dione], the DC50 is 0.1 to 10 nM.

For the compound `Cc1cccc(C)c1Nc1nn(C)c2nc(Nc3ccc4c(c3)CN(C3CN(C[C@H]5CCN(c6ccc7c(c6)C(=O)N(C6CCC(=O)NC6=O)C7=O)C5)C3)CC4)ncc12` (stereo partly drawn) [Compound 150, 5-((R)-3-((3-(7-((3-((2,6-Dimethylphenyl)amino)-1-methyl-1H-pyrazolo[3,4-d]pyrimidin-6-yl)amino)-3,4-dihydroisoquinolin-2 (1H)-yl)azetidin-1-yl)methyl)pyrrolidin-1-yl)-2-(2,6-dioxopiperidin-3-yl)isoindoline-1,3-dione], the half-maximal degradation concentration (DC50) lay within 0.1 to 10 nM.

With `Cc1cccc(C)c1Nc1nn(C)c2nc(Nc3ccc4c(c3)CN(C3CN(C[C@@H]5CCN(c6ccc7c(c6)C(=O)N(C6CCC(=O)NC6=O)C7=O)C5)C3)CC4)ncc12` (stereo partly drawn) [Compound 151, 5-((S)-3-((3-(7-((3-((2,6-Dimethylphenyl)amino)-1-methyl-1H-pyrazolo[3,4-d]pyrimidin-6-yl)amino)-3,4-dihydroisoquinolin-2 (1H)-yl)azetidin-1-yl)methyl)pyrrolidin-1-yl)-2-(2,6-dioxopiperidin-3-yl)isoindoline-1,3-dione], the 50% degradation concentration (DC50) fell in the range of 0.1 to 10 nM.

In the case of `Cc1cccc(C)c1Nc1nn(C)c2nc(Nc3ccc4c(c3)CN(C3CN(CC5CN(c6ccc7c(c6)C(=O)N(C6CCC(=O)NC6=O)C7=O)C5)C3)CC4)ncc12` (stereo not drawn) [Compound 152, 5-(3-((3-(7-((3-((2,6-Dimethylphenyl)amino)-1-methyl-TH-pyrazolo[3,4-d]pyrimidin-6-yl)amino)-3,4-dihydroisoquinolin-2 (1H)-yl)azetidin-1-yl)methyl)azetidin-1-yl)-2-(2,6-dioxopiperidin-3-yl)isoindoline-1,3-dione], the 50% degradation concentration (DC50) is 0.1 to 10 nM.

`Cc1cccc(C)c1Nc1nn(C)c2nc(Nc3ccc4c(c3)CN(C3CN(C[C@@H]5[C@H]6CN(c7ccc8c(c7)C(=O)N(C7CCC(=O)NC7=O)C8=O)C[C@@H]56)C3)CC4)ncc12` (stereo partly drawn) [Compound 153, 5-((1R,5S,6S)-6-((3-(7-((3-((2,6-Dimethylphenyl)amino)-1-methyl-1H-pyrazolo[3,4-d]pyrimidin-6-yl)amino)-3,4-dihydroisoquinolin-2 (1H)-yl)azetidin-1-yl)methyl)-3-azabicyclo[3.1.0]hexan-3-yl)-2-(2,6-dioxopiperidin-3-yl)isoindoline-1,3-dione]: the DC50 is 0.1 to 10 nM.

For `Cc1cccc(C)c1Nc1nn(C)c2nc(Nc3ccc(N4CCN(C[C@H]5CCN(c6ccc7c(c6)C(=O)N(C6CCC(=O)NC6=O)C7=O)C5)CC4)nc3)ncc12` (stereo partly drawn) [Compound 154, 5-((R)-3-((4-(5-((3-((2,6-Dimethylphenyl)amino)-1-methyl-1H-pyrazolo[3,4-d]pyrimidin-6-yl)amino)pyridin-2-yl)piperazin-1-yl)methyl)pyrrolidin-1-yl)-2-(2,6-dioxopiperidin-3-yl)isoindoline-1,3-dione], the 50% degradation concentration (DC50) was 0.1 to 10 nM.

Take `Cc1cccc(C)c1Nc1nn(C)c2nc(Nc3ccc(N4CCN(C[C@@H]5CCN(c6ccc7c(c6)C(=O)N(C6CCC(=O)NC6=O)C7=O)C5)CC4)nc3)ncc12` (stereo partly drawn) [Compound 155, 5-((S)-3-((4-(5-((3-((2,6-dimethylphenyl)amino)-1-methyl-1H-pyrazolo[3,4-d]pyrimidin-6-yl)amino)pyridin-2-yl)piperazin-1-yl)methyl)pyrrolidin-1-yl)-2-(2,6-dioxopiperidin-3-yl)isoindoline-1,3-dione]: the DC50 lay within 0.1 to 10 nM.

`Cc1cccc(C)c1Nc1nn(C)c2nc(Nc3ccc(N4CCN(C5CCN(c6ccc7c(c6)C(=O)N(C6CCC(=O)NC6=O)C7=O)CC5)CC4)nc3)ncc12` (stereo not drawn) [Compound 156, 5-(4-(4-(5-((3-((2,6-dimethylphenyl)amino)-1-methyl-1H-pyrazolo[3,4-d]pyrimidin-6-yl)amino)pyridin-2-yl)piperazin-1-yl)piperidin-1-yl)-2-(2,6-dioxopiperidin-3-yl)isoindoline-1,3-dione]: the DC50 was 0.1 to 10 nM.

As for `Cc1cccc(C)c1Nc1nn(C)c2nc(Nc3ccc(N4CCN(CCC5CCN(c6ccc7c(c6)C(=O)N(C6CCC(=O)NC6=O)C7=O)CC5)CC4)nc3)ncc12` (stereo not drawn) [Compound 157, 5-(4-(2-(4-(5-((3-((2,6-dimethylphenyl)amino)-1-methyl-1H-pyrazolo[3,4-d]pyrimidin-6-yl)amino)pyridin-2-yl)piperazin-1-yl)ethyl)piperidin-1-yl)-2-(2,6-dioxopiperidin-3-yl)isoindoline-1,3-dione], the half-maximal degradation concentration (DC50) was 0.1 to 10 nM.

On to `Cc1cccc(C)c1Nc1nn(C)c2nc(Nc3ccc(N4CCN(C5CN(c6ccc7c(c6)C(=O)N(C6CCC(=O)NC6=O)C7=O)C5)CC4)nc3)ncc12` (stereo not drawn) [Compound 158, 5-(3-(4-(5-((3-((2,6-Dimethylphenyl)amino)-1-methyl-1H-pyrazolo[3,4-d]pyrimidin-6-yl)amino)pyridin-2-yl)piperazin-1-yl)azetidin-1-yl)-2-(2,6-dioxopiperidin-3-yl)isoindoline-1,3-dione], for which the 50% degradation concentration (DC50) was in the range of 0.1 to 10 nM.

For `Cc1cccc(C)c1Nc1nn(C)c2nc(Nc3ccc(N4CCN(CC5CN(c6ccc7c(c6)C(=O)N(C6CCC(=O)NC6=O)C7=O)C5)CC4)nc3)ncc12` (stereo not drawn) [Compound 159, 5-(3-((4-(5-((3-((2,6-dimethylphenyl)amino)-1-methyl-1H-pyrazolo[3,4-d]pyrimidin-6-yl)amino)pyridin-2-yl)piperazin-1-yl)methyl)azetidin-1-yl)-2-(2,6-dioxopiperidin-3-yl)isoindoline-1,3-dione], the half-maximal degradation concentration (DC50) was in the range of 0.1 to 10 nM.

Consider `Cc1cccc(C)c1Nc1nn(C)c2nc(Nc3ccc(N4CCN(C[C@H]5CCCN(c6ccc7c(c6)C(=O)N(C6CCC(=O)NC6=O)C7=O)C5)CC4)nc3)ncc12` (stereo partly drawn) [Compound 160, 5-((R)-3-((4-(5-((3-((2,6-Dimethylphenyl)amino)-1-methyl-1H-pyrazolo[3,4-d]pyrimidin-6-yl)amino)pyridin-2-yl)piperazin-1-yl)methyl)piperidin-1-yl)-2-(2,6-dioxopiperidin-3-yl)isoindoline-1,3-dione], for which the 50% degradation concentration (DC50) was 0.1 to 10 nM.

Turning to `Cc1cccc(C)c1Nc1nn(C)c2nc(Nc3ccc(N4CCN(C[C@@H]5CCCN(c6ccc7c(c6)C(=O)N(C6CCC(=O)NC6=O)C7=O)C5)CC4)nc3)ncc12` (stereo partly drawn) [Compound 161, 5-((S)-3-((4-(5-((3-((2,6-Dimethylphenyl)amino)-1-methyl-1H-pyrazolo[3,4-d]pyrimidin-6-yl)amino)pyridin-2-yl)piperazin-1-yl)methyl)piperidin-1-yl)-2-(2,6-dioxopiperidin-3-yl)isoindoline-1,3-dione], the DC50 lay within 0.1 to 10 nM.

Broadly, the DC50 is the concentration giving 50% degradation.

The values are drawn from US12161722B2, “Bifunctional heterocyclic compound having BTK degradation function via ubiquitin proteasome pathway, and use thereof” (KOREA RESEARCH INSTITUTE OF CHEMICAL TECHNOLOGY, priority 2021, dated 2024).
